Our source for the melting point and IC50 values is patent US6605628B1, “Method of using 5-(arysulfonyl)-, 5-(arylsulfanyl)-and 5-(arylsulfanyl)thiazolidine-2,4-diones for inhibition of farnesyl-protein transferase” (Wyeth Holdings Corporation, priority 2001, dated 2003).

In general, melting point refers to the temperature of the solid-liquid transition. A word on the IC50: it is the concentration needed to halve the response being measured.

The target of series [1] is T1, FPTase (Homo sapiens, UniProt P49354+P49356). Description: in vitro FTase Inhibition Assay, K-Ras used as substrate for farnesylation. The format is biochemical. To be noted: Table I.
The target in series [2] is T1, FPTase. The series is described as follows: in vitro FTase Inhibition Assay, H-Ras used as substrate for farnesylation. Format: biochemical. To be noted: Table I, read-out: IC50 H-Ras*.

Some results are limits rather than exact numbers.

As to `COc1ccc(S(=O)(=O)C2(CCCC#Cc3ccc(C#N)cc3)SC(=O)NC2=O)cc1` (stereo not drawn) [Example 158, 4-(5-[5-(4-Methoxybenzenesulfonyl)-2,4-dioxo-thiazolidin-5-yl]pent-1-ynyl}benzonitrile], the melting point lay within 174 to 178 °C. Moreover, at FPTase [1], the IC50 amounted to 3.8 µM. Also, the IC50 on FPTase [2] was 150 nM.
For `Cc1ccc(S(=O)(=O)C2(CCCC#Cc3ccc(S(C)(=O)=O)cc3)SC(=O)NC2=O)cc1` (stereo not drawn) [Example 159, 5-[5-(4-Methanesulfonylphenyl)-pent-4-ynyl]-5-(toluene-4-sulfonyl)-thiazolidine-2,4-dione], in that order: 190 to 193 °C, more than 10 µM and 650 nM.
Take `O=C1NC(=O)C(CCCC#Cc2ccc(-n3cccc3)cc2)(S(=O)(=O)c2ccc(I)cc2)S1` (stereo not drawn) [Example 162, 5-(4-Iodo-benzenesulfonyl)-5-[5-(4-pyrrol-1-yl-phenyl)pent-4-ynyl]-thiazolidine-2,4-dione]: the melting point lay in the range of 194 to 195 °C. Moreover, half-maximal inhibition at FPTase [1] (IC50) required 4 µM. For the same compound, the IC50 at FPTase [2] worked out at 1210 nM.
`COc1cccc(S(=O)(=O)C2(CCCC#Cc3cccs3)SC(=O)NC2=O)c1` (stereo not drawn) [Example 164, 5-(3-Methoxybenzenesulfonyl)-5-(5-thiophen-2-yl-pent-4-ynyl)-thiazolidine-2,4-dione] had a melting point of 133 to 135 °C. At FPTase [1], the IC50 is more than 10 µM. Besides, at FPTase [2], the IC50 is 150 nM.
For `COc1ccc(S(=O)(=O)C2(CCCC#Cc3cccs3)SC(=O)NC2=O)cc1` (stereo not drawn) [Example 166, 5-(4-Methoxybenzenesulfonyl)-5-(5-thiophen-2-yl-pent-4-ynyl)-thiazolidine-2,4-dione], in that order: 60 to 66 °C, 5.3 µM and 150 nM.
For `Cc1ccc(S(=O)(=O)C2(CC#Cc3ccc(-c4ccccc4)cc3)SC(=O)NC2=O)cc1` (stereo not drawn) [Example 169, 5-(3-Biphenyl-4-yl-prop-2-ynyl)-5-(toluene-4-sulfonyl)-thiazolidine-2,4-dione], in that order: 179 to 180 °C, 1.8 µM and 100 nM.
`Cc1ccc(S(=O)(=O)C2(CC#Cc3ccc(Oc4ccccc4)cc3)SC(=O)NC2=O)cc1` (stereo not drawn) [Example 170, 5-[3-(4-Phenoxyphenyl)prop-2-ynyl]-5-(toluene-4-sulfonyl)-thiazolidine-2,4-dione] gave a melting point of 64 to 66 °C. Besides, the IC50 at FPTase [1] stood at 4.7 µM. Besides, the IC50 at FPTase [2] was determined as 380 nM.
